Earlier results, collected in patent publication US20070071815A1 (priority 2004, published 2007).

half-life of creatine in blood plasma: 1 to 1.5 h
Compound: CN(CC(=O)O)C(=N)N [creatine, N-(aminoiminomethyl)-N-methylglycine]
